{"source": "patent US8962313B2", "about": "“Method for the simultaneous induction of CTL and γδT cell” (Medinet Co., Ltd., priority 2008, dated 2015)", "type_in_all_cases": "cell-based, human", "key": {"[1]": {"test_system": "CD56 on γδT cells", "assay": "Surface antigen (CD3, Vγ9-TCR, CD56) expression ratio of γδT cells in cultured peripheral blood mononuclear cells, FACS", "settings": "Day 13 of culture; 5 μM zoledronic acid, 1,000 U/mL IL-2; Disease Antigen (+) = plus 2 μg/ml Mart-1 (A27L)", "procedure": "Whether the addition of a disease antigen affects the expression ratio of CD56 on γδT Cells or not was examined by the following procedures. CD56 is an isoform of a neural cell adhesion molecule (N-CAM) and an adhesion factor known as a marker for NK cells. It is one of the markers providing indicators of the cytotoxic activity of γδT cells.\n1) Peripheral blood (8 ml) was collected from a healthy donor and peripheral blood mononuclear cells were separated therefrom using a density gradient solution for blood cell separation.\n(§1) 2) The resultant peripheral blood mononuclear cells were suspended in AIM-V.\n(§2) 3) These peripheral blood mononuclear cells (1.8×10^6/25 mL) were seeded in a 12-well plate (SUMILON). Thereto was added 1,000 U/mL IL-2, to which 5 μM zoledronic acid (ZOMETA) and 2 μg/ml Mart-1 (A27L) as a peptide were further added, followed by starting culture under conditions of 37° C. and 5% CO2 concentration.\n(§3) 4) In addition, AB serum was added in an amount of 10% after starting the culture.\n5) AIM-V containing 1,000 U/ml IL-2 and AB serum were added depending on the proliferation of cells, which were then cultured for up to 14 days.\n6) In the cell population obtained after culture for up to 14 days as described above, the percentage of cells expressing TCRVγ9 or the percentage of cells expressing CD-56 were measured using an anti-TCRVγ9 antibody (Beckman Coulter), an anti-CD56 antibody (Beckman Coulter) and an anti-CD3 antibody (Beckman Coulter) with FACS (Epics XL-MCL ADC, Beckman Coulter)."}, "[2]": {"test_system": "γδT cells in peripheral blood mononuclear cells", "assay": "Induction of γδT cells (TCRVγ9-expressing cells) in cultured peripheral blood mononuclear cells, FACS", "settings": "5 μM zoledronic acid, 1,000 U/mL IL-2, Disease Antigen (+) = plus 2 μg/ml Mart-1 (A27L)", "procedure": "(§4) 1) Peripheral blood (42 ml) was collected from a healthy donor and peripheral blood mononuclear cells were separated therefrom using a density gradient solution for blood cell separation.\nas §1\nas §2, with “(8×10^6/4” for “(1.8×10^6/25”, “6-well” for “12-well”, “(ZOMETA (trade name))” for “(ZOMETA)”, “(A27L, sequence: […])” for “(A27L)”\nas §3\n(§5) 5) AIM-V containing 1,000 U/ml IL-2 and AB serum were added depending on the proliferation of cells, which were then cultured for 14 days.\n(§6) 6) In the cell population obtained after culture for 7 days or 14 days as described above, the percentage of disease antigen specific CD8-positive T cells and the percentage of cells expressing TCRVγ9 were measured using an anti-CD8 antibody (BD Pharmingen), T-Select HLA-A*0201 Mart-1 Tetramer […] (MBL), an anti-TCRVγ9 antibody (Beckman Coulter) and an anti-CD3 antibody (Beckman Coulter) with a fluorescence-activated cell sorter (hereinafter referred to as FACS; Epics XL-MCL ADC, Beckman Coulter)."}, "[3]": {"test_system": "disease antigen specific CD8-positive T cells in peripheral blood mononuclear cells", "assay": "Induction of disease antigen specific CD8-positive T cells (CTLs) in cultured peripheral blood mononuclear cells, FACS with Mart-1 tetramer", "settings": "5 μM zoledronic acid, 1,000 U/mL IL-2, Disease Antigen (+) = plus 2 μg/ml Mart-1 (A27L)", "procedure": "as §4, §1\nas §2, with “(8×10^6/4” for “(1.8×10^6/25”, “6-well” for “12-well”, “(ZOMETA (trade name))” for “(ZOMETA)”, “(A27L, sequence: […])” for “(A27L)”\nas §3, §5, §6"}}}
{"molecule": "O=P(O)(O)C(O)(Cn1ccnc1)P(=O)(O)O", "note": "[zoledronic acid]", "values": [{"measurement": "Surface Antigen Expression Ratio (%): CD3, Gate Area Live Cells", "setting": "[1]", "value": 98.5, "unit": "%"}, {"measurement": "Surface Antigen Expression Ratio (%): CD56, Gate Area CD3", "setting": "[1]", "value": 53.1, "unit": "%"}, {"measurement": "Surface Antigen Expression Ratio (%): CD56, Gate Area Live Cells", "setting": "[1]", "value": 54.4, "unit": "%"}, {"measurement": "Surface Antigen Expression Ratio (%): CD56, Gate Area Vγ9", "setting": "[1]", "value": 53.1, "unit": "%"}, {"measurement": "Surface Antigen Expression Ratio (%): Vγ9-TCR, Gate Area Live Cells", "setting": "[1]", "value": 97.0, "unit": "%"}, {"measurement": "Expansion Fold (times) of γδT Cells Contained in Mononuclear Cells", "setting": "[2]; Donor A, 7 days of culture", "value": 50.40, "unit": "times"}, {"measurement": "Percentage (%) of γδT Cells Contained in Mononuclear Cells", "setting": "[2]; Donor A, 7 days of culture", "value": 43.7, "unit": "%"}, {"measurement": "Expansion Fold (times) of γδT Cells Contained in Mononuclear Cells", "setting": "[2]; Donor A, 14 days of culture", "value": 4027.31, "unit": "times"}, {"measurement": "Percentage (%) of γδT Cells Contained in Mononuclear Cells", "setting": "[2]; Donor A, 14 days of culture", "value": 80.9, "unit": "%"}, {"measurement": "Expansion Fold (times) of γδT Cells Contained in Mononuclear Cells", "setting": "[2]; Donor B, 7 days of culture", "value": 31.31, "unit": "times"}, {"measurement": "Percentage (%) of γδT Cells Contained in Mononuclear Cells", "setting": "[2]; Donor B, 7 days of culture", "value": 68.2, "unit": "%"}, {"measurement": "Expansion Fold (times) of γδT Cells Contained in Mononuclear Cells", "setting": "[2]; Donor B, 14 days of culture", "value": 1328.85, "unit": "times"}, {"measurement": "Percentage (%) of γδT Cells Contained in Mononuclear Cells", "setting": "[2]; Donor B, 14 days of culture", "value": 99.0, "unit": "%"}, {"measurement": "Expansion Fold (times) of γδT Cells Contained in Mononuclear Cells", "setting": "[2]; Donor C, 7 days of culture", "value": 4.97, "unit": "times"}, {"measurement": "Percentage (%) of γδT Cells Contained in Mononuclear Cells", "setting": "[2]; Donor C, 7 days of culture", "value": 28.6, "unit": "%"}, {"measurement": "Expansion Fold (times) of γδT Cells Contained in Mononuclear Cells", "setting": "[2]; Donor C, 14 days of culture", "value": 1244.02, "unit": "times"}, {"measurement": "Percentage (%) of γδT Cells Contained in Mononuclear Cells", "setting": "[2]; Donor C, 14 days of culture", "value": 89.2, "unit": "%"}, {"measurement": "Expansion Fold (times) of Disease Antigen Specific CD8-Positive T Cells Contained in Mononuclear Cells", "setting": "[3]; Donor A, 7 days of culture", "value": 0.00, "unit": "times"}, {"measurement": "Percentage (%) of Disease Antigen Specific CD8-Positive T Cells Contained in Mononuclear Cells", "setting": "[3]; Donor A, 7 days of culture", "value": 0.00, "unit": "%"}, {"measurement": "Expansion Fold (times) of Disease Antigen Specific CD8-Positive T Cells Contained in Mononuclear Cells", "setting": "[3]; Donor A, 14 days of culture", "value": 0.00, "unit": "times"}, {"measurement": "Percentage (%) of Disease Antigen Specific CD8-Positive T Cells Contained in Mononuclear Cells", "setting": "[3]; Donor A, 14 days of culture", "value": 0.00, "unit": "%"}, {"measurement": "Expansion Fold (times) of Disease Antigen Specific CD8-Positive T Cells Contained in Mononuclear Cells", "setting": "[3]; Donor B, 7 days of culture", "value": 1.79, "unit": "times"}, {"measurement": "Percentage (%) of Disease Antigen Specific CD8-Positive T Cells Contained in Mononuclear Cells", "setting": "[3]; Donor B, 7 days of culture", "value": 0.01, "unit": "%"}, {"measurement": "Expansion Fold (times) of Disease Antigen Specific CD8-Positive T Cells Contained in Mononuclear Cells", "setting": "[3]; Donor B, 14 days of culture", "value": 0.00, "unit": "times"}, {"measurement": "Percentage (%) of Disease Antigen Specific CD8-Positive T Cells Contained in Mononuclear Cells", "setting": "[3]; Donor B, 14 days of culture", "value": 0.00, "unit": "%"}, {"measurement": "Expansion Fold (times) of Disease Antigen Specific CD8-Positive T Cells Contained in Mononuclear Cells", "setting": "[3]; Donor C, 7 days of culture", "value": 0.57, "unit": "times"}, {"measurement": "Percentage (%) of Disease Antigen Specific CD8-Positive T Cells Contained in Mononuclear Cells", "setting": "[3]; Donor C, 7 days of culture", "value": 0.02, "unit": "%"}, {"measurement": "Expansion Fold (times) of Disease Antigen Specific CD8-Positive T Cells Contained in Mononuclear Cells", "setting": "[3]; Donor C, 14 days of culture", "value": 0.00, "unit": "times"}, {"measurement": "Percentage (%) of Disease Antigen Specific CD8-Positive T Cells Contained in Mononuclear Cells", "setting": "[3]; Donor C, 14 days of culture", "value": 0.00, "unit": "%"}]}
